# Experiments:
# [1] = molecular target: T1, Plasmodium falciparum lysyl t-RNA synthetase (Pf-KRS1) (Plasmodium falciparum, UniProt Q8IDJ8); assay: Pf-KRS1 inhibition biochemical assay (Kinase-Glo, ATP depletion); conditions: read-out: Pf-KRS pIC50 (converted)
# T1 construct: Pf KRS1-; made in house; host or cells: E. coli BL21 (DE3)
# From the text: Plasmodium falciparum Lysine tRNA Synthetase (KRS1) Biochemical Assay Methodology.
# Lysine tRNA Synthetase (KRS1) is an enzyme which catalyses the esterification of L-Lysine to the appropriate transfer ribonucleic acid (tRNA), to form an aminoacyl-tRNA. Once the tRNA is charged, a ribosome transfers the amino acid from the tRNA onto a growing peptide, according to the genetic code.
# The substrates of this reaction are L-lysine, and adenosine triphosphate (ATP), the overall reaction is: amino acid+tRNA+ATP→aminoacyl-tRNA+AMP+PPi
# In this overall reaction AMP is adenosine monophosphate and PP; is inorganic pyrophosphate. The reaction progression in a biochemical assay can be tracked by the depletion of one of the substrates, in the case of this invention, ATP. This was done using the proprietary assay kit, Kinase Glo® Assay which is a luminescent kinase assay platform suitable for monitoring kinase activities using up to 10 μm ATP which is commercially available from the Promega Corporation of Madison, Wis., USA. The Kinase-Glo® Assay was performed in a single well of a multiwell plate by adding a volume of Kinase-Glo® Reagent equal to the volume of a completed kinase reaction and measuring luminescence. The resulting luminescent signal is correlated with the amount of ATP present and is inversely correlated with the amount of kinase activity. As such by use of this assay methodology a reduction of the luminescent signal is relative to the reduction in ATP as the reaction progresses. A compound which inhibits the action of KRS will show no drop in the luminescent signal from assay controls.
# Assays were performed using both Plasmodium falciparum and human KRS to assess any selectivity of various test compounds.
# Test compounds were solubilized in DMSO at a top concentration of 10 mM and serially diluted 1 in 3 to achieve a range of final assay concentrations of 50 μM to 2.5 nM in 10 μl reaction volume.
# KRS was diluted to a working concentration of 75 nM in assay buffer (25 mM HEPES, 25 mM KOH, 10 mM MgCl2.6H2O, 50 mM KCl), and the following ‘Master Mix’ prepared in assay buffer: 0.1 mg/ml BSA, 250 μM DTT, 200 μM Spermine, 0.05% NP-40, ATP 3 μM for Pf KRS1 (4 μM for Hs KRS1), 0.4 mg/ml tRNA from Yeast, 60 μM L-Lysine, 0.5 U/ml Pyrophosphatase.
# Plates were incubated at room temperature for 5 h for Pf KRS (2.5 hrs for HsKRS), then the assay stopped by the addition of 10 μl of The Kinase-Glo® Reagent Assay was performed in a single well of a multiwell plate by adding a volume of Kinase-Glo® Reagent which is commercially available from the Promega Corporation of Madison, Wis., USA. The plates were incubated in the dark for a further 15 mins before being read for luminescence on a BMG PHERAstar® FSX plate reader which is a multi-mode reader for use in high-throughput screening available from BMG Labtech if Cary, N.C., USA. Data were analysed by calculating the percentage inhibition compared to the maximum and minimum assay controls. Concentration effect curves were fitted using nonlinear regression within ActivityBase and IC50 values were determined using standard protocols.
# [2] = tested on: Plasmodium falciparum strain 3D7; assay: Plasmodium falciparum 3D7 in vitro growth inhibition (SYBRgreen I); type: cell-based; conditions: Plasmodium falciparum, 3D7; read-out: pEC50 for Pf 3D7 (converted)
# Method: Parasite Cultures and Cytotoxicity Assay Methodology for Plasmodium falciparum. […] Growth inhibition of the Plasmodium falciparum cultures was quantified in a 10-point dose response curve with a 1 in 3 dilution series from a top assay concentration of 50 μM. This 384 well plate based fluorescence assay utilises the binding of SYBRgreen I (Thermo Fisher Scientific/Invitrogen cat. no. S7585) to double stranded DNA, which greatly increases the fluorescent signal at 528 nm after excitation at 485 nm. Mefloquine was used as a drug control to monitor the quality of the assay (Z′=0.6 to 0.8, where Z′ is a measure of the discrimination between the positive and negative controls on a screen plate). Dose-response curves were determined from a minimum of 3 independent experiments. Compound bioactivity was expressed as EC50, the effective concentration of compound causing 50% parasite death.
# Cryptosporidium parvum = assay: In vitro Crytosporidium inhibition assay; type: cell-based; conditions: Cryptosporidium parvum; read-out: Cryptosporidium parvum pEC50 (converted)
# From the text: Assay Method for Measurement of In Vitro Inhibition of Crytosporidium.
# These experiments were run in accordance with the method of Besssoff et. al. Antimicrob. Agents Chemother. 2013, 57:1804-1814. Results from these experiments are provided in the Experimental Results hereinafter.
# Trypanosoma cruzi = Trypanosoma cruzi intracellular imaging assay; type: cell-based; conditions: read-out: Trypanosoma cruzi pEC50 (converted)
# From the text: Assay Method for Measurement of In Vitro Inhibition of Trypanosoma cruzi. […] These experiments were run in accordance with the method of Pena et. al., Scientific Reports 5, Article number: 8771 (2015). Results from these experiments are provided in the Experimental Results hereinafter.
# Hep G2 = Hep G2 in-vitro cytotoxicity assay; type: cell-based; conditions: Homo sapiens, HepG2, read-out: Hs HEPG2 pEC50 (converted)
# From the text: In-vitro cytotoxicity studies can be carried out using Hep G2 (Human hepatocyte carcinoma, HPACC cat. no. 85011430) used as indicators for general mammalian cell toxicity. Hep G2 in-vitro cytotoxicity can be assessed using the assay procedure as described in “Use of a human-derived liver cell line for the detection of cytoprotective, antigenotoxic and cogenotoxic agents”, Volker Mersch-Sundermann, Siegfried Knasmüller, Xin-jiang Wu, Firouz Darroudi, Fekadu Kassie. J. Tox 198 (2004) 329-340) the contents of which are incorporated herein by reference.
# [3] = molecular target: T2, Mycobacterium tuberculosis lysyl t-RNA synthetase (Mtb KRS) (Mycobacterium tuberculosis, UniProt P9WFU9); assay: Mtb KRS inhibition biochemical assay (BioMol Green); conditions: read-out: Mtb KRS pIC50 (converted)
# T2 construct: MtbKRS1-; made in house; host or cells: E. coli BL21 (DE3)
# T2 sequence (P9WFU9 whole entry): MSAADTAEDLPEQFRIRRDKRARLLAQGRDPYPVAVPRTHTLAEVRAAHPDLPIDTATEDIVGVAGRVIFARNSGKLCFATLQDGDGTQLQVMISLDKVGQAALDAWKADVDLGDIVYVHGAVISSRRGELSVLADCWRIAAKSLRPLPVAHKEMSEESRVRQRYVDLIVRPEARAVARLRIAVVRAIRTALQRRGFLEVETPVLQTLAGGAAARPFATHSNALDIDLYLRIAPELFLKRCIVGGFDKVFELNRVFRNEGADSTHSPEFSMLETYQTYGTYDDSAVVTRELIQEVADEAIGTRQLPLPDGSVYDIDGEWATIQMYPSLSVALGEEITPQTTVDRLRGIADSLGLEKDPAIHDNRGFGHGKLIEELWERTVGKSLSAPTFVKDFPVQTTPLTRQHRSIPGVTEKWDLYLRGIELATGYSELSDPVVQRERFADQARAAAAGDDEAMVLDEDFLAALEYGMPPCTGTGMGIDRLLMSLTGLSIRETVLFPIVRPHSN
# T1 sequence (Q8IDJ8 entry or part of it, looked up, natural form): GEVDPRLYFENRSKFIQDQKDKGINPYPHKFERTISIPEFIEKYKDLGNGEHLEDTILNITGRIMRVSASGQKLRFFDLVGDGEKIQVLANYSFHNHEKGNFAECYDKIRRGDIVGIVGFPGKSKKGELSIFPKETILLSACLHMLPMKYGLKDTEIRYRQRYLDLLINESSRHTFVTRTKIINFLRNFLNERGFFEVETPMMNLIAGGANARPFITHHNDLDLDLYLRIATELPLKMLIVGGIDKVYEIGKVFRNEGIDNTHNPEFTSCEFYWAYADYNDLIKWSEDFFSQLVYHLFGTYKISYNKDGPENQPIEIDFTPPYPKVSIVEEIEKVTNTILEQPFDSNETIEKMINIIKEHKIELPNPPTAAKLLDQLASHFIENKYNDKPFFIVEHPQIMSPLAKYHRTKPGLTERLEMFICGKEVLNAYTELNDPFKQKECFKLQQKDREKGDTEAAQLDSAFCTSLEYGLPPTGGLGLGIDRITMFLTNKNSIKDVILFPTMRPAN
SMILES,IC50 [1],EC50 [2],EC50 (Cryptosporidium parvum),EC50 (Trypanosoma cruzi),EC50 (Hep G2),IC50 [3]
"O=C(NCC1CCCCC1)c1cc(=O)c2cc(O)ccc2o1 [Example 6, N-(cyclohexylmethyl)-6-hydroxy-4-oxo-chromene-2-carboxamide]",63.1 nM,158 nM,126 nM,20 nM,15800 nM,–
"O=C(NCC1CCCCC1)c1cc(=O)c2cccc(O)c2o1 [Example 12, N-(cyclohexylmethyl)-8-hydroxy-4-oxo-chromene-2-carboxamide]",–,–,–,316 nM,25100 nM,–
"O=C(NCC1(O)CCCCC1)c1cc(=O)c2cc(O)ccc2o1 [Example 13, 6-hydroxy-N-[(1-hydroxycyclohexyl)methyl]-4-oxo-chromene-2-carboxamide]",79.4 nM,50.1 nM,120 nM,251 nM,20000 nM,–
"O=C(NCC1CCCCC1)c1cc(=O)c2cc(F)ccc2o1 [Example 31, N-(cyclohexylmethyl)-6-fluoro-4-oxo-chromene-2-carboxamide]",79.4 nM,316 nM,631 nM,126 nM,50100 nM,–
"O=C(NCC1(O)CCCCC1)c1cc(=O)c2cc(F)ccc2o1 [Example 41, 6-fluoro-N-[(1-hydroxycyclohexyl)methyl]-4-oxo-chromene-2-carboxamide]",100 nM,200 nM,501 nM,–,25100 nM,–
"O=C(NCC1(O)CCCCC1)c1cc(=O)c2cc(F)cc(F)c2o1 [Example 55, 6,8-difluoro-N-[(1-hydroxycyclohexyl)methyl]-4-oxo-chromene-2-carboxamide]",200 nM,398 nM,501 nM,–,50100 nM,–
"O=C(NCC1CCC(F)(F)CC1)c1cc(=O)c2cc(F)cc(O)c2o1 [Example 75, N-((4,4-difluorocyclohexyl)methyl)-6-fluoro-8-hydroxy-4-oxo-4H-chromene-2-carboxamide]",79.4 nM,200 nM,794 nM,–,50100 nM,–
"O=C(NCC1(O)CCC(F)(F)CC1)c1cc(=O)c2cc(F)cc(O)c2o1 [Example 76A, N-((4,4-difluoro-1-hydroxycyclohexyl)methyl)-6-fluoro-8-hydroxy-4-oxo-4H-chromene-2-carboxamide]",50.1 nM,79.4 nM,3160 nM,–,50100 nM,–
"O=C(NC1CCCCC1)c1cc(=O)c2cc(F)cc(O)c2o1 [Example 76B, N-cyclohexyl-6-fluoro-8-hydroxy-4-oxo-chromene-2-carboxamide]",398 nM,1580 nM,–,–,–,7940 nM
"O=C(NC1CCCC(F)(F)C1)c1cc(=O)c2cc(F)cc(O)c2o1 (stereo not drawn) [Example 76C, N-(3,3-Difluorocyclohexyl)-6-fluoro-8-hydroxy-4-oxo-4H-chromene-2-carboxamide]",316 nM,1000 nM,2000 nM,–,50100 nM,15800 nM
"O=C(NCC1(O)CC2(CCC2)C1)c1cc(=O)c2cc(F)cc(O)c2o1 [Example 76D, 6-fluoro-8-hydroxy-N-((2-hydroxyspiro[3.3]heptan-2-yl)methyl)-4-oxo-4H-chromene-2-carboxamide]",126 nM,398 nM,3980 nM,–,50100 nM,–
"O=C(NCC1CCC1)c1cc(=O)c2cc(F)cc(O)c2o1 [Example 76E, N-(cyclobutylmethyl)-6-fluoro-8-hydroxy-4-oxo-4H-chromene-2-carboxamide]",251 nM,794 nM,–,–,–,31600 nM
"O=C(NCCCC1CCC1)c1cc(=O)c2cc(F)cc(O)c2o1 [Example 76G, N-(3-cyclobutylpropyl)-6-fluoro-8-hydroxy-4-oxo-4H-chromene-2-carboxamide]",126 nM,1580 nM,1260 nM,–,31600 nM,–
"CCC(C)CNC(=O)c1cc(=O)c2cc(F)cc(O)c2o1 (stereo not drawn) [Example 76H, 6-fluoro-8-hydroxy-N-(2-methylbutyl)-4-oxo-chromene-2-carboxamide]",251 nM,251 nM,–,–,–,50100 nM
"Nc1cccc2c(=O)cc(C(=O)NCC3CCCCC3)oc12 [Example 83, 8-Amino-N-(cyclohexylmethyl)-4-oxo-4H-chromene-2-carboxamide]",50.1 nM,20 nM,–,158 nM,7940 nM,–
"CS(=O)(=O)Nc1cccc2c(=O)cc(C(=O)NCC3CCCCC3)oc12 [Example 84, N-(cyclohexylmethyl)-8-(methylsulfonamido)-4-oxo-4H-chromene-2-carboxamide]",126 nM,316 nM,631 nM,–,50100 nM,–
"Nc1cc(F)cc2c(=O)cc(C(=O)NCC3CCC(F)(F)CC3)oc12 [Example 94, 8-amino-N-[(4,4-difluorocyclohexyl)methyl]-6-fluoro-4-oxo-4H-chromene-2-carboxamide]",–,50.1 nM,–,50.1 nM,–,–
"Nc1cc(F)cc2c(=O)cc(C(=O)NCC3CCC(F)(F)C3)oc12 (stereo not drawn) [Example 95, 8-amino-N-[(3,3-difluorocyclopentyl)methyl]-6-fluoro-4-oxo-4H-chromene-2-carboxamide]",–,50.1 nM,–,63.1 nM,–,–
"Nc1cc(F)cc2c(=O)cc(C(=O)NCC3CCCCC3)oc12 [Example 99, 8-amino-N-(cyclohexylmethyl)-6-fluoro-4-oxo-chromene-2-carboxamide]",50.1 nM,10 nM,15.8 nM,25.1 nM,5010 nM,–
